How the values were obtained:
Format in all cases: cell-based
rat GluN1/GluN2C [1] = target: T1, rat GluN1/GluN2C (Rattus norvegicus, UniProt P35439+Q00961); assay: Two-electrode voltage-clamp recording in Xenopus laevis oocytes expressing recombinant rat GluN1/GluN2C; conditions: for remaining activity at 30 µM: 30 μM test compound, current ratio, oocytes, read-out: I30 μM/Icontrol (mean ± SEM, %) GluN2C; for IC50: Tables 1 and 2, read-out: IC50 (μM) [95% Confidence Interval] GluN2C
T1 construct: expressed in transfected cells; host or cells: Xenopus laevis oocytes (cRNA injection, GluN1/GluN2 ratio 1:2)
Method: (§1) Two-electrode voltage-clamp recording was performed in Xenopus laevis oocytes injected with mRNA to express recombinant rat GluN1/GluN2A, GluN1/GluN2B, GluN1/GluN2C, and GluN1/GluN2D. cDNAs for rat NMDA subunits GluN1-la (GenBank U08261; hereafter GluN1), GluN2A (GenBank D13211), GluN2B (GenBank U11419), GluN2C (GenBank M91563), and GluN2D (GenBank L31611) were provided by Drs. S. Heinemann from Salk Institute, S. Nakanishi from Kyoto University, and P. Seeburg from the University of Heidelberg. An automatic injector (Nanoject II, Drummond Scientific) was used for cRNA injection using the pipettes filled with mineral oil. The cRNA that transcribed in vitro via the mMessage Machine kit (Ambion) was diluted with nuclease-free water, and then injected at a GluN1/GluN2 ratio of 1:2. The oocytes were stored in Barth's solution that contained 88 mM NaCl, 5.0 mM Tris-HCl, 2.4 mM NaHCO3, 1.0 mM KCl, 0.84 mM MgSO4, 0.41 mM CaCl2), 0.33 mM Ca(NO3)2, 0.1 mg/ml gentamycin sulfate, 1.0 U/ml penicillin, and 1 μg/ml streptomycin at pH 7.4 and temperatures of 15-17° C. for two to five days before the two-electrode voltage-clamp recordings.
(§2) During recording, the oocytes were placed in a perfusion chamber and continually washed with the recording solution containing 90 mM NaCl, 1.0 mM KCl, 0.50 mM BaCl2, 0.005 mM EDTA, and 10 mM HEPES at pH 7.4 and a temperature of 23° C. Glass electrodes with a tip resistance of 0.5 to 2.5 MΩ were obtained from thin-walled glass capillary tubes. Voltage electrodes and current electrodes were filled with 0.3 M and 3.0 M KCl, respectively. The recordings were executed with the oocytes membrane potential holding at −40 mV by an OC-725 amplifier (Warner Instrument Co.). All compounds were dissolved in dimethyl sulfoxide (DMSO) as 20 mM stock solutions and further diluted to reach the desired concentration (0.05-0.5% (vol/vol) DMSO) in recording solution comprised of 30 µM glycine and 100 µM glutamate. In general, each compound was tested in multiple oocytes. To evaluate the inhibitory efficacy of the compounds, concentration-response curves were plotted using the average two-electrode voltage-clamp recording results and fitted by the following equation:
(§3) response=100/{1+[(inhibitor concentration)/IC50]^N} • where IC50 is the concentration of compound that inhibit half maximal of the current response and N is the Hill slope.

rat GluN1/GluN2B [2] = target: T2, rat GluN1/GluN2B (Rattus norvegicus, UniProt P35439+Q00960); assay: Two-electrode voltage-clamp recording in Xenopus laevis oocytes expressing recombinant rat GluN1/GluN2B; conditions: for remaining activity at 30 µM: 30 μM test compound, current ratio, oocytes, read-out: I30 μM/Icontrol (mean ± SEM, %) GluN2B; for IC50: Tables 1 and 2, read-out: IC50 (μM) [95% Confidence Interval] GluN2B
T2 construct: expressed in transfected cells; host or cells: Xenopus laevis oocytes (cRNA injection, GluN1/GluN2 ratio 1:2)
Method: as §1, §2, §3

rat GluN1/GluN2D [3] = target: T3, rat GluN1/GluN2D (Rattus norvegicus, UniProt Q62645); assay: Two-electrode voltage-clamp recording in Xenopus laevis oocytes expressing recombinant rat GluN1/GluN2D; conditions: for Subunit Selectivity 2B IC50/2D IC50: ratio of GluN2B IC50 to GluN2D IC50; for Subunit Selectivity 2A IC50/2D IC50: ratio of GluN2A IC50 to GluN2D IC50; for Current ratio I/Icontrol (mean ± SEM, %) GluN2D: current ratio reported for 10 μM test compound (footnote c)
T3 construct: expressed in transfected cells; host or cells: Xenopus laevis oocytes (cRNA injection, GluN1/GluN2 ratio 1:2)
Method: as §1, §2, §3

rat GluN1/GluN2D [4] = target: T4, rat GluN1/GluN2D (Rattus norvegicus, UniProt P35439+Q62645); assay: as above; conditions: for remaining activity at 30 µM: 30 μM test compound, current ratio, oocytes, read-out: I30 μM/Icontrol (mean ± SEM, %) GluN2D; for IC50: Tables 1 and 2, read-out: IC50 (μM) [95% Confidence Interval] GluN2D
T4 construct: expressed in transfected cells; host or cells: Xenopus laevis oocytes (cRNA injection, GluN1/GluN2 ratio 1:2)
Method: as §1, §2, §3

rat GluN1/GluN2A [5] = target: T5, rat GluN1/GluN2A (Rattus norvegicus, UniProt P35439+Q00959); assay: Two-electrode voltage-clamp recording in Xenopus laevis oocytes expressing recombinant rat GluN1/GluN2A; conditions: for remaining activity at 30 µM: 30 μM test compound, current ratio, oocytes, read-out: I30 μM/Icontrol (mean ± SEM, %) GluN2A; for IC50: Tables 1 and 2, read-out: IC50 (μM) [95% Confidence Interval] GluN2A
T5 construct: expressed in transfected cells; host or cells: Xenopus laevis oocytes (cRNA injection, GluN1/GluN2 ratio 1:2)
Method: as §1, §2, §3

rat GluN1/GluN2C [6] = target: T6, rat GluN1/GluN2C (Rattus norvegicus, UniProt Q00961); assay: Two-electrode voltage-clamp recording in Xenopus laevis oocytes expressing recombinant rat GluN1/GluN2C; conditions: current ratio reported for 10 μM test compound (footnote c)
T6 construct: expressed in transfected cells; host or cells: Xenopus laevis oocytes (cRNA injection, GluN1/GluN2 ratio 1:2)
Method: as §1, §2, §3

rat GluN1/GluN2B [7] = target: T7, rat GluN1/GluN2B (Rattus norvegicus, UniProt Q00960); assay: Two-electrode voltage-clamp recording in Xenopus laevis oocytes expressing recombinant rat GluN1/GluN2B
T7 construct: expressed in transfected cells; host or cells: Xenopus laevis oocytes (cRNA injection, GluN1/GluN2 ratio 1:2)
Method: as §1, §2, §3

rat GluN1/GluN2A [8] = target: T8, rat GluN1/GluN2A (Rattus norvegicus, UniProt Q00959); assay: Two-electrode voltage-clamp recording in Xenopus laevis oocytes expressing recombinant rat GluN1/GluN2A; conditions: current ratio reported for 10 μM test compound (footnote c)
T8 construct: expressed in transfected cells; host or cells: Xenopus laevis oocytes (cRNA injection, GluN1/GluN2 ratio 1:2)
Method: as §1, §2, §3

[9] = current ratio reported for 10 μM test compound (footnote c)

T4 sequence (Q62645 28-1323, other chains not shown): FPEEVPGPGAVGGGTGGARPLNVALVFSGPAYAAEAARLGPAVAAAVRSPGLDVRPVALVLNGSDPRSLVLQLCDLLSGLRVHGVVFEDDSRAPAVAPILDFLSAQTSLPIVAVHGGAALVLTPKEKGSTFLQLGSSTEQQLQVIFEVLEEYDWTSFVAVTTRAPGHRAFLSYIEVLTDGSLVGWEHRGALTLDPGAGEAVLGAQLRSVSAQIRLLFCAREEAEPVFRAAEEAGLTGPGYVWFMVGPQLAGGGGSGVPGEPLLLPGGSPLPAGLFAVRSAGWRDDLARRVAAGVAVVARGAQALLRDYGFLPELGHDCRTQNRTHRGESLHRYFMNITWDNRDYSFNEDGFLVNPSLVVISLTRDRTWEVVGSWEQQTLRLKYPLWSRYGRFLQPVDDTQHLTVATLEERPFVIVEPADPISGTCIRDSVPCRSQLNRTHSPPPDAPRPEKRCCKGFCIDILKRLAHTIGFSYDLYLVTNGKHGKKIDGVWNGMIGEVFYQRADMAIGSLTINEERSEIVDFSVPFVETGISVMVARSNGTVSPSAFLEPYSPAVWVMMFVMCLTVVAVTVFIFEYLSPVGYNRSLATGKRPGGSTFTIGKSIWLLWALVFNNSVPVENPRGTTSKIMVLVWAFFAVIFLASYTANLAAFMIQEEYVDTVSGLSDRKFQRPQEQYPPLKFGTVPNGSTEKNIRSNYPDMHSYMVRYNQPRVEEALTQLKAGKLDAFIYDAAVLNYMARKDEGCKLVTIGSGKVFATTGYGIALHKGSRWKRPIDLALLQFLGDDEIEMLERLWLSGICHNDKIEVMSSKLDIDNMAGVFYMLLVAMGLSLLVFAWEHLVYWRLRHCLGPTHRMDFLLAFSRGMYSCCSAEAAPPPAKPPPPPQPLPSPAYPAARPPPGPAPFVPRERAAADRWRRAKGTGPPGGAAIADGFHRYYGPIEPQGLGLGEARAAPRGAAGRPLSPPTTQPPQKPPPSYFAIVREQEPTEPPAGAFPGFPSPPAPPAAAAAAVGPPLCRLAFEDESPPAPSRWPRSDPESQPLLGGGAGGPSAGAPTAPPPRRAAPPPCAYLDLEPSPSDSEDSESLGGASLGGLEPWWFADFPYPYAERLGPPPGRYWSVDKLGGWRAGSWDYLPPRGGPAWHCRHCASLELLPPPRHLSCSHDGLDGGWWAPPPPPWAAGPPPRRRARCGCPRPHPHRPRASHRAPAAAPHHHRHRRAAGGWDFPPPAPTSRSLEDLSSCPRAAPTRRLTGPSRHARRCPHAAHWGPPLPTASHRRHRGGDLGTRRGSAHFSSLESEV
T3 sequence (Q62645 28-1323, other chains not shown): as above
T7 sequence (Q00960 27-1482, other chains not shown): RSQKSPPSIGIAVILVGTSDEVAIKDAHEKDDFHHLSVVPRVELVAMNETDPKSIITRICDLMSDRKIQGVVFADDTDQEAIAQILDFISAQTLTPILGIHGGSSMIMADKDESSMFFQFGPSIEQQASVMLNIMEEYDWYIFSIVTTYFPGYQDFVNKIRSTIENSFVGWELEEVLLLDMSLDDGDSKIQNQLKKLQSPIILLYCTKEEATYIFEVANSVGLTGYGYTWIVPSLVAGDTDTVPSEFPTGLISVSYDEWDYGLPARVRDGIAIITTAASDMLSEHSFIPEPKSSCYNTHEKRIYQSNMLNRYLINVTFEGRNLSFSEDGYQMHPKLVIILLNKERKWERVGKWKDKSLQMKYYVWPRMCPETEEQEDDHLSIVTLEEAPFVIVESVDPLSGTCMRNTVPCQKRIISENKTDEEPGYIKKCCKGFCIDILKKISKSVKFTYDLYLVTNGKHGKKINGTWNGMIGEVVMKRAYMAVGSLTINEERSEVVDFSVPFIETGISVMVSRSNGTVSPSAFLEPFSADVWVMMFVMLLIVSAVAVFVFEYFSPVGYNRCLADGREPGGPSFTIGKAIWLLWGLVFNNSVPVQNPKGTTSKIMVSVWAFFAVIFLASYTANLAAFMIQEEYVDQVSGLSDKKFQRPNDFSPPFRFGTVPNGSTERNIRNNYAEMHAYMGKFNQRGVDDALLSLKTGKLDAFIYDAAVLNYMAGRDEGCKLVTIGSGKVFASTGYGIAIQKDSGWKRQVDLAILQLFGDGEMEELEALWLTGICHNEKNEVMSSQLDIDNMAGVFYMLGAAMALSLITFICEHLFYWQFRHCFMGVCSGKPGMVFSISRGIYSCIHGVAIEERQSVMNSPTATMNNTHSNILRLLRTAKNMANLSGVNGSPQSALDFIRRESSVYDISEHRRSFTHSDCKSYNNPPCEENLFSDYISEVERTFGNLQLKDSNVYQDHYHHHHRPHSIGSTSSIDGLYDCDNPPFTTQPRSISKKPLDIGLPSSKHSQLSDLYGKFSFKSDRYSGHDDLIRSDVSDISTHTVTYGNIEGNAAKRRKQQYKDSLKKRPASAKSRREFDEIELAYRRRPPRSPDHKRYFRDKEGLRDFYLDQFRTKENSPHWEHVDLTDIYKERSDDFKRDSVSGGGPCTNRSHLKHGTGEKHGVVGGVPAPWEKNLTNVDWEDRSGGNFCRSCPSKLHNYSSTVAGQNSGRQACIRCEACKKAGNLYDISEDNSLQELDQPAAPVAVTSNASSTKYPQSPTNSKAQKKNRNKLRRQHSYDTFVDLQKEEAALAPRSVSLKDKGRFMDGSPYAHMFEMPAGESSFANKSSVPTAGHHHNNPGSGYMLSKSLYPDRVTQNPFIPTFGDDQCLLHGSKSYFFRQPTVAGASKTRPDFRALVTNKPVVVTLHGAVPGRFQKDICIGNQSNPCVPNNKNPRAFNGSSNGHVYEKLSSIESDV
T2 sequence (Q00960 27-1482, other chains not shown): as above

| SMILES | remaining activity at 30 µM (rat GluN1/GluN2C [1]) | IC50 (rat GluN1/GluN2C [1]) | remaining activity at 30 µM (rat GluN1/GluN2B [2]) | IC50 (rat GluN1/GluN2B [2]) | Subunit Selectivity 2B IC50/2D IC50 (rat GluN1/GluN2D [3]) | remaining activity at 30 µM (rat GluN1/GluN2D [4]) | IC50 (rat GluN1/GluN2D [4]) | remaining activity at 30 µM (rat GluN1/GluN2A [5]) | Subunit Selectivity 2A IC50/2D IC50 (rat GluN1/GluN2D [3]) | IC50 (rat GluN1/GluN2A [5]) | Current ratio I/Icontrol (mean ± SEM, %) GluN2C (rat GluN1/GluN2C [6]) | Current ratio I/Icontrol (mean ± SEM, %) GluN2B (rat GluN1/GluN2B [7]; [9]) | Current ratio I/Icontrol (mean ± SEM, %) GluN2D (rat GluN1/GluN2D [3]) | Current ratio I/Icontrol (mean ± SEM, %) GluN2A (rat GluN1/GluN2A [8]) | Current ratio I/Icontrol (mean ± SEM, %) GluN2B (rat GluN1/GluN2B [7]; current ratio reported for 3 μM test compound (footnote d, Table 2)) |
| --- | --- | --- | --- | --- | --- | --- | --- | --- | --- | --- | --- | --- | --- | --- | --- |
| Cc1cc(-c2ccc(Cl)cc2)c(C2=NN(C(=O)C(F)(F)CC(=O)O)C(c3ccc(Cl)cc3)C2)c(=O)[nH]1 (stereo not drawn) [Compound 55, 4-[3-(4-Chlorophenyl)-5-[4-(4-chlorophenyl)-6-methyl-2-oxo-1H-pyridin-3-yl]-3,4-dihydropyrazol-2-yl]-3,3-difluoro-4-oxo-butanoic acid] | 29 ± 2% | 14 µM | 55 ± 3% | 41 µM | 3 | 26 ± 1.8% | 12 µM | 86 ± 4.4% | – | – | – | – | – | – | – |
| O=C(CCc1nnn[nH]1)N1N=C(c2c(-c3ccc(Cl)cc3)c3ccccc3[nH]c2=O)CC1c1ccc(Cl)cc1 (stereo not drawn) [Compound 109, 4-(4-Chlorophenyl)-3-[3-(4-chlorophenyl)-2-[3-(1H-tetrazol-5-yl)propanoyl]-3,4-dihydropyrazol-5-yl]-1H-quinolin-2-one] | 2.3 ± 0.5% | – | 48 ± 1.9% | – | 56 | 2.4 ± 1.6% | – | 29 ± 4.1% | 42 | – | – | – | – | – | – |
| O=C(O)CC(F)(F)C(=O)N1N=C(c2c(-c3ccc(Cl)cc3)c3cccnc3[nH]c2=O)CC1c1ccc(Cl)cc1 (stereo not drawn) [Compound 88, 4-[3-(4-Chlorophenyl)-5-[4-(4-chlorophenyl)-2-oxo-1H-1,8-naphthyridin-3-yl]-3,4-dihydropyrazol-2-yl]-3,3-difluoro-4-oxo-butanoic acid] | 6.6 ± 0.9% | 2.1 µM | 71 ± 0.9% | 67 µM | 52 | 3.8 ± 0.6% | 1.3 µM | 49 ± 7.3% | 35 | 45 µM | – | – | – | – | – |
| O=C(O)CC(F)(F)C(=O)N1N=C(c2cnccc2-c2ccccc2)CC1c1ccc(Cl)cc1 (stereo not drawn) [Compound 15, 4-[3-(4-Chlorophenyl)-5-(4-phenyl-3-pyridyl)-3,4-dihydropyrazol-2-yl]-3,3-difluoro-4-oxo-butanoic acid] | 91 ± 3.5% | – | 82 ± 1.1% | – | – | 74 ± 7.1% | – | 98 ± 4.1% | – | – | – | – | – | – | – |
| O=C(O)CC(F)(F)C(=O)N1N=C(c2c(-c3ccc(Cl)cc3)cc[nH]c2=O)CC1c1ccc(Cl)cc1 (stereo not drawn) [Compound 28, 4-[3-(4-Chlorophenyl)-5-[4-(4-chlorophenyl)-2-oxo-1H-pyridin-3-yl]-3,4-dihydropyrazol-2-yl]-3,3-difluoro-4-oxo-butanoic acid] | 61 ± 1% | 55 µM | 96 ± 2.4% | – | – | 39 ± 1.7% | 20 µM | 104 ± 2.2% | – | – | – | – | – | – | – |
| O=C(CCc1nccs1)N1N=C(c2c(-c3ccc(Cl)cc3)c3ccccc3[nH]c2=O)CC1c1ccc(Cl)cc1 (stereo not drawn) [Compound 123, 4-(4-Chlorophenyl)-3-[3-(4-chlorophenyl)-2-(3-thiazol-2-ylpropanoyl)-3,4-dihydropyrazol-5-yl]-1H-quinolin-2-one] | – | – | – | – | – | – | – | – | – | – | 71 ± 4.8^c (n = 2, 8) % | 94 ± 1.7^c (n = 2, 8) % | 67 ± 5.1^c (n = 2, 8) % | 96 ± 1.8^c (n = 2, 8) % | – |
| Cc1cc(-c2ccc(Cl)cc2)c(C2=NN(C(=O)C(F)(F)CC(=O)O)C(c3ccc(Cl)cc3)C2)cn1 (stereo not drawn) [Compound 73, 4-[3-(4-Chlorophenyl)-5-[4-(4-chlorophenyl)-6-methyl-3-pyridyl]-3,4-dihydropyrazol-2-yl]-3,3-difluoro-4-oxo-butanoic acid] | 111 ± 1.9% | – | 100 ± 2.7% | – | – | 110 ± 3.1% | – | 100 ± 2% | – | – | – | – | – | – | – |
| O=C(O)CC(F)(F)C(=O)N1N=C(c2c(-c3ccc(Cl)cc3)c3ccncc3[nH]c2=O)CC1c1ccc(Cl)cc1 (stereo not drawn) [Compound 120, 4-[3-(4-Chlorophenyl)-5-[4-(4-chlorophenyl)-2-oxo-1H-1,7-naphthyridin-3-yl]-3,4-dihydropyrazol-2-yl]-3,3-difluoro-4-oxo-butanoic acid] | – | 2.1 µM | – | – | – | – | 0.8 µM | – | – | – | 18 ± 1.0^c (n = 3, 11) % | 82 ± 1.7^c (n = 2, 8) % | 7.4 ± 0.9^c (n = 3, 10) % | 77 ± 4.8^c (n = 2, 7) % | – |
| O=C(O)CC(F)(F)C(=O)N1N=C(c2cnccc2-c2ccc(Cl)cc2)CC1c1ccc(Cl)cc1 (stereo not drawn) [Compound 29, 4-[3-(4-Chlorophenyl)-5-[4-(4-chlorophenyl)-3-pyridyl]-3,4-dihydropyrazol-2-yl]-3,3-difluoro-4-oxo-butanoic acid] | 35 ± 0.84% | 15 µM | 79 ± 4.3% | – | – | 27 ± 2.3% | 12 µM | 74 ± 3.4% | – | – | – | – | – | – | – |
| O=C(O)CC(F)(F)C(=O)N1N=C(c2c(-c3ccc(Br)cc3)c3ccsc3[nH]c2=O)CC1c1ccc(Cl)cc1 (stereo not drawn) [57(a), 4-[5-[4-(4-Bromophenyl)-6-oxo-7H-thieno[2,3-b]pyridin-5-yl]-3-(4-chlorophenyl)-3,4-dihydropyrazol-2-yl]-3,3-difluoro-4-oxo-butanoic acid] | 22 ± 1.5% | 0.56 µM | 37.7 ± 3.5% | 19 µM | 44 | 19 ± 3% | 0.43 µM | 47.6 ± 5.5% | 24 | 11 µM | – | – | – | – | – |
| Cc1[nH]c(=O)c(C2=NN(C(=O)C(F)(F)CC(=O)O)C(c3ccc(Cl)cc3)C2)c(-c2ccc(Cl)cc2)c1C (stereo not drawn) [Compound 56, 4-[3-(4-Chlorophenyl)-5-[4-(4-chlorophenyl)-5,6-dimethyl-2-oxo-1H-pyridin-3-yl]-3,4-dihydropyrazol-2-yl]-3,3-difluoro-4-oxo-butanoic acid] | 2.7 ± 0.32% | 1.9 µM | 58 ± 2% | 47 µM | – | 7.9 ± 2.9% | 2.6 µM | 71 ± 5% | – | 42 µM | – | – | – | – | – |
| O=C(O)CC(F)(F)C(=O)N1N=C(c2c(-c3ccc(Cl)cc3)c3ccsc3[nH]c2=O)CC1c1ccc(Cl)cc1 (stereo not drawn) [57(b), 4-[3-(4-Chlorophenyl)-5-[4-(4-chlorophenyl)-6-oxo-7H-thieno[2,3-b]pyridin-5-yl]-3,4-dihydropyrazol-2-yl]-3,3-difluoro-4-oxo-butanoic acid] | 6.9 ± 2.5% | 0.32 µM | – | – | – | 5.9 ± 2.7% | 0.25 µM | 86 ± 7.4% | – | – | – | – | – | – | 88 ± 4.6^d (n = 1, 4) % |

Source: patent US20240217979A1, “GluN2 Subunit Selective Antagonists of the N-Methyl-D-Aspartate Receptors” (Emory University, priority 2021, published 2024)
